# From ChEMBL document CHEMBL1201862, “PubChem BioAssay data set” (2004)
#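 48-hour exposure; five concentrations; linearly interpolated endpoints. GI50: concentration for 50% inhibition of growth.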 Calls of active or inactive are those of the source. Cut-off read from the data, not from the text of the source: active = GI50 up to about 1.1 µM and inactive = higher.
# What was measured:
# Assay in all cases: DTP human tumour cell line panel, 48 h
# UACC-257 = test system: UACC-257
# IGROV-1 = test system: IGROV-1
# HT-29 = test system: HT-29
# SN12C = test system: SN12C
# HL-60 = test system: HL-60
# OVCAR-4 = test system: OVCAR-4
# T47D = test system: T47D
# U-251 = test system: U-251
# SK-MEL-28 = test system: SK-MEL-28
# UO-31 = test system: UO-31
# HOP-62 = test system: HOP-62
# MOLT-4 = test system: MOLT-4
# M14 = test system: M14
# EKVX = test system: EKVX
# SNB-19 = test system: SNB-19
# SK-MEL-2 = test system: SK-MEL-2
# PC-3 = test system: PC-3
# OVCAR-5 = test system: OVCAR-5
# SF-539 = test system: SF-539
# SR = test system: SR
SMILES,GI50 (UACC-257),GI50 (IGROV-1),GI50 (HT-29),GI50 (SN12C),GI50 (HL-60),GI50 (OVCAR-4),GI50 (T47D),GI50 (U-251),GI50 (SK-MEL-28),GI50 (UO-31),GI50 (HOP-62),GI50 (MOLT-4),GI50 (M14),GI50 (EKVX),GI50 (SNB-19),GI50 (SK-MEL-2),GI50 (PC-3),GI50 (OVCAR-5),GI50 (SF-539),GI50 (SR)
C=C(C)C1=CCC[C@]2(C1)N=C(OC)[C@@H](C(C)C)N=C2OC,> 100 µM (inactive),47.1 µM (inactive),> 100 µM (inactive),> 100 µM (inactive),28.3 µM (inactive),> 100 µM (inactive),> 100 µM (inactive),> 100 µM (inactive),> 100 µM (inactive),96.4 µM (inactive),> 100 µM (inactive),28.7 µM (inactive),> 100 µM (inactive),> 100 µM (inactive),> 100 µM (inactive),> 100 µM (inactive),> 100 µM (inactive),> 100 µM (inactive),> 100 µM (inactive),
CC(=O)Nc1ccc(NNc2cc(=O)n(C)c(=O)[nH]2)cc1,13.5 µM (inactive),14 µM (inactive),2.02 µM (inactive),10.1 µM (inactive),2.95 µM (inactive),10.2 µM (inactive),,11.7 µM (inactive),11.9 µM (inactive),17.2 µM (inactive),15.1 µM (inactive),34.8 µM (inactive),8.89 µM (inactive),17 µM (inactive),17.7 µM (inactive),,4 µM (inactive),14.1 µM (inactive),9.73 µM (inactive),3.47 µM (inactive)
CC(=O)Oc1ccc2cc(Oc3ccc(Cl)cc3)c(=O)oc2c1,24.1 µM (inactive),30.1 µM (inactive),63.7 µM (inactive),29.6 µM (inactive),49.4 µM (inactive),58.2 µM (inactive),34.1 µM (inactive),42.8 µM (inactive),41.5 µM (inactive),30.6 µM (inactive),58.2 µM (inactive),,49.9 µM (inactive),36.5 µM (inactive),60.4 µM (inactive),,28.2 µM (inactive),> 100 µM (inactive),33.3 µM (inactive),64.7 µM (inactive)
COC1CC(C)C(OC)C2=CC(=O)C=C(NC(=O)/C(C)=C/C=C\C(C)C(OC(N)=O)/C(C)=C\C(C)C1OC)C2=O (centres undefined),0.261 µM (active),2.97 µM (inactive),0.244 µM (active),0.296 µM (active),0.182 µM (active),0.834 µM (active),,0.37 µM (active),0.166 µM (active),4.83 µM (inactive),1.48 µM (inactive),0.0535 µM (active),0.589 µM (active),11 µM (inactive),0.495 µM (active),0.525 µM (active),11.5 µM (inactive),3.2 µM (inactive),0.355 µM (active),0.0682 µM (active)
[N-]=[N+]=NC1OC(=O)C(Cl)=C1N=P(c1ccccc1)(c1ccccc1)c1ccccc1 (centres undefined),> 10 µM (inactive),> 10 µM (inactive),,> 10 µM (inactive),3.77 µM (inactive),9.71 µM (inactive),> 10 µM (inactive),> 10 µM (inactive),> 10 µM (inactive),> 10 µM (inactive),> 10 µM (inactive),3.01 µM (inactive),6.98 µM (inactive),> 10 µM (inactive),> 10 µM (inactive),> 10 µM (inactive),2.95 µM (inactive),> 10 µM (inactive),> 10 µM (inactive),
c1ccc(C2(c3cc4ccccc4[nH]3)OCCO2)nc1,> 100 µM (inactive),> 100 µM (inactive),> 100 µM (inactive),,> 100 µM (inactive),> 100 µM (inactive),> 100 µM (inactive),> 100 µM (inactive),> 100 µM (inactive),> 100 µM (inactive),> 100 µM (inactive),,> 100 µM (inactive),> 100 µM (inactive),> 100 µM (inactive),> 100 µM (inactive),> 100 µM (inactive),> 100 µM (inactive),> 100 µM (inactive),
[O-][n+]1onc(-c2ccccc2)c1CN1CCOCC1,> 100 µM (inactive),80 µM (inactive),> 100 µM (inactive),> 100 µM (inactive),20.7 µM (inactive),10.4 µM (inactive),71.6 µM (inactive),> 100 µM (inactive),> 100 µM (inactive),77.1 µM (inactive),> 100 µM (inactive),23.3 µM (inactive),> 100 µM (inactive),> 100 µM (inactive),> 100 µM (inactive),> 100 µM (inactive),77.8 µM (inactive),> 100 µM (inactive),> 100 µM (inactive),
Cc1cccnc1N/C=C1\C(=O)NC(=O)N(C)C1=O,> 100 µM (inactive),64.1 µM (inactive),> 100 µM (inactive),> 100 µM (inactive),> 100 µM (inactive),> 100 µM (inactive),55.7 µM (inactive),> 100 µM (inactive),> 100 µM (inactive),> 100 µM (inactive),> 100 µM (inactive),> 100 µM (inactive),> 100 µM (inactive),44 µM (inactive),> 100 µM (inactive),> 100 µM (inactive),> 100 µM (inactive),> 100 µM (inactive),> 100 µM (inactive),
COC(=O)[C@]1(c2cc3ccccc3[nH]2)CC2CN(C(=O)OCc3ccccc3)C1CC2=O (some centres undefined),36.3 µM (inactive),29.7 µM (inactive),15.5 µM (inactive),17.4 µM (inactive),16.4 µM (inactive),28.1 µM (inactive),22.5 µM (inactive),15.8 µM (inactive),39.3 µM (inactive),21.3 µM (inactive),43.2 µM (inactive),15 µM (inactive),30.5 µM (inactive),17.1 µM (inactive),59.7 µM (inactive),18.2 µM (inactive),17.1 µM (inactive),14.1 µM (inactive),28.3 µM (inactive),
CCCCCCCCCCCCCCCCCCOCC(O)COP(=O)(O)OCC1OC(n2ccc(N)nc2=O)C(O)C1O (centres undefined),24.8 µM (inactive),9.62 µM (inactive),22.8 µM (inactive),36.6 µM (inactive),9.84 µM (inactive),28.3 µM (inactive),62.5 µM (inactive),11.9 µM (inactive),57.5 µM (inactive),,11.6 µM (inactive),0.908 µM (active),,61.8 µM (inactive),11.6 µM (inactive),,6.01 µM (inactive),33.6 µM (inactive),16.6 µM (inactive),17 µM (inactive)
COc1cc(C=O)cc(/C=N/n2c3ccccc3c3ccccc32)c1O,26.8 µM (inactive),,35.7 µM (inactive),5.46 µM (inactive),5.81 µM (inactive),74 µM (inactive),> 100 µM (inactive),9.04 µM (inactive),5.83 µM (inactive),8.18 µM (inactive),30.3 µM (inactive),16.9 µM (inactive),4.6 µM (inactive),43.1 µM (inactive),21.3 µM (inactive),,5.41 µM (inactive),45.1 µM (inactive),4.32 µM (inactive),4.72 µM (inactive)
O=C(N/C(=C\NC1=NCCS1)C(=O)N1CSC[C@@H]1C(=O)O)c1ccccc1,> 100 µM (inactive),,> 100 µM (inactive),> 100 µM (inactive),> 100 µM (inactive),> 100 µM (inactive),> 100 µM (inactive),> 100 µM (inactive),> 100 µM (inactive),> 100 µM (inactive),> 100 µM (inactive),> 100 µM (inactive),> 100 µM (inactive),> 100 µM (inactive),> 100 µM (inactive),,> 100 µM (inactive),> 100 µM (inactive),> 100 µM (inactive),
C=C(C)CNC(=S)N(N)c1ccc2ccccc2c1,> 100 µM (inactive),11.4 µM (inactive),65.3 µM (inactive),> 100 µM (inactive),57.3 µM (inactive),> 100 µM (inactive),24.2 µM (inactive),> 100 µM (inactive),> 100 µM (inactive),61.1 µM (inactive),> 100 µM (inactive),> 100 µM (inactive),> 100 µM (inactive),24.7 µM (inactive),> 100 µM (inactive),,61.1 µM (inactive),27.7 µM (inactive),> 100 µM (inactive),> 100 µM (inactive)
COc1cc2cc(C(=O)N3CC(COS(C)(=O)=O)c4c3cc([N+](=O)[O-])c3ccccc43)[nH]c2c(OC)c1OC (centres undefined),> 31.6 µM (inactive),23.5 µM (inactive),6.15 µM (inactive),5.83 µM (inactive),0.794 µM (active),> 31.6 µM (inactive),> 31.6 µM (inactive),> 31.6 µM (inactive),> 31.6 µM (inactive),2.56 µM (inactive),7.57 µM (inactive),0.407 µM (active),19 µM (inactive),> 31.6 µM (inactive),> 31.6 µM (inactive),7.71 µM (inactive),22.9 µM (inactive),18.6 µM (inactive),4.05 µM (inactive),
CCOC(=O)/C(C(=O)Nc1cccc(Cl)c1)=C(/N)N1CCOCC1,> 100 µM (inactive),> 100 µM (inactive),> 100 µM (inactive),> 100 µM (inactive),> 100 µM (inactive),> 100 µM (inactive),> 100 µM (inactive),> 100 µM (inactive),> 100 µM (inactive),,> 100 µM (inactive),> 100 µM (inactive),> 100 µM (inactive),> 100 µM (inactive),> 100 µM (inactive),> 100 µM (inactive),> 100 µM (inactive),> 100 µM (inactive),> 100 µM (inactive),
